Assay results: ChEMBL document CHEMBL1201862, “PubChem BioAssay data set” (2004)
Activity calls are given as the source filed them.

Tests used:
[1] = target: T1, Mannose-6-phosphate isomerase (Homo sapiens, UniProt P34949); experiment: MPI inhibition at elevated mannose 6-phosphate – biochemical, fluorescence intensity, high mannose 6-phosphate, primary screen (AID 1220)
T1 sequence (P34949 whole entry): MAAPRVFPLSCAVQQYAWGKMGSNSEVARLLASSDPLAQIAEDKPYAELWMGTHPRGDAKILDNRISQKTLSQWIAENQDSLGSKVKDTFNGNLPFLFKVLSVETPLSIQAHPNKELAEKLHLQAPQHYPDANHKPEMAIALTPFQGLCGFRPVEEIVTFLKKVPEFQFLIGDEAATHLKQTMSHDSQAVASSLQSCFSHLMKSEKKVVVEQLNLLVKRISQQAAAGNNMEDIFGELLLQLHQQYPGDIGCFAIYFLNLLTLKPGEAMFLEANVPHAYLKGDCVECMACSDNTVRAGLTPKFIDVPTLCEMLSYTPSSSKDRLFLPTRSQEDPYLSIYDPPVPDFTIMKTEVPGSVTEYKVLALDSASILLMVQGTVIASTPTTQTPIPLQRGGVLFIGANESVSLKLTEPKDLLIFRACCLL

[2] = target: Lysine-specific demethylase 4A (Homo sapiens, UniProt O75164); experiment: inhibition of JMJD2A H3K9me3 demethylation – biochemical, DELFIA europium, cherry-picked samples, selectivity assay for GASC-1 inhibitor project, dose response (AID 488840)
Sequence of Lysine-specific demethylase 4A (O75164 whole entry): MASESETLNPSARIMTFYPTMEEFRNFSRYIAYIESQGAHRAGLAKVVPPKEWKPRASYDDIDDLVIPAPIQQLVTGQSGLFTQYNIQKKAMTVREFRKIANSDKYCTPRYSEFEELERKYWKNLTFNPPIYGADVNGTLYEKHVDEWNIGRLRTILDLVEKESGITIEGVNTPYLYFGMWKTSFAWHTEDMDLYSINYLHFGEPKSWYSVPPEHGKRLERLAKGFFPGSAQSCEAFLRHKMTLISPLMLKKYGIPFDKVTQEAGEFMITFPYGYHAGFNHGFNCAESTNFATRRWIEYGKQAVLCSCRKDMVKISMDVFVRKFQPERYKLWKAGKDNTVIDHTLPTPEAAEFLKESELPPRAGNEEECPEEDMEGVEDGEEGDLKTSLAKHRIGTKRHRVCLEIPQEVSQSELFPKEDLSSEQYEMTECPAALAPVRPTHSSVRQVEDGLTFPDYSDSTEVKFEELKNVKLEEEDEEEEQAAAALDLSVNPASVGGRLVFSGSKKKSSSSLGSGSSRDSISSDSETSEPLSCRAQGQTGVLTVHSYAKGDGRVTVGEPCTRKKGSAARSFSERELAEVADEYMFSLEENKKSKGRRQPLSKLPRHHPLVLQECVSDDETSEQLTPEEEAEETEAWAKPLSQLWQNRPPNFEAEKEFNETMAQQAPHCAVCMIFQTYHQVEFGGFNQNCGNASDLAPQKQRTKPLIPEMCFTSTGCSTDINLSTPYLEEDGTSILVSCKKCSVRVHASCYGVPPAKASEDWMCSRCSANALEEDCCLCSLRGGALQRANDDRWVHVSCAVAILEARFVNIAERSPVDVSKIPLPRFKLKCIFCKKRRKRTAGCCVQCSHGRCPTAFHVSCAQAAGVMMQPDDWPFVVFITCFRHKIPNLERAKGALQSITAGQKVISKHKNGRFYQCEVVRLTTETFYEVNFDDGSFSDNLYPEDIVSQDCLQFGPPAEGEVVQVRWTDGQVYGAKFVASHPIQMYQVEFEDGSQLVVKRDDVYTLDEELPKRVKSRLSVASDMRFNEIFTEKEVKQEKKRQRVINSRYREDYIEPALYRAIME

HEK293 [3] = experiment: cells; settings: Homo sapiens
HEK293 [4] = experiment: cells; settings: Homo sapiens; remark: listed apart in the source
[5] = target: 5-hydroxytryptamine receptor 5A (Homo sapiens, UniProt P47898); experiment: Counterscreen for agonists of OPRM1-OPRD1 heterodimerization: luminescence-based cell-based high throughput dose response assay to identify agonists of 5-hydroxytryptamine (serotonin) 5A receptor (HTR5A). [Related pubchem assays (depositor defined):AID504326, AID504355, AID504692, AID504904, AID504905]; assay type: functional
Sequence of 5-hydroxytryptamine receptor 5A (P47898 whole entry): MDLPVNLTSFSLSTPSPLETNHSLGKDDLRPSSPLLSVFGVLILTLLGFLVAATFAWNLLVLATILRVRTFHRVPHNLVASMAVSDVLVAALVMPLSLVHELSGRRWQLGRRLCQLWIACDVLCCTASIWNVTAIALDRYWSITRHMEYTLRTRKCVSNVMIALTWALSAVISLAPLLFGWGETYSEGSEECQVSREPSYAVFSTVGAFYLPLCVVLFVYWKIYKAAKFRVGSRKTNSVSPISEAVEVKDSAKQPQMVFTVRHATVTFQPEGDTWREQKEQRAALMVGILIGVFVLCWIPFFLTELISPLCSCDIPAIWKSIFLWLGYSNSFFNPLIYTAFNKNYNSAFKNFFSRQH

[6] = target: T2, Short transient receptor potential channel 4 (Mus musculus, UniProt Q9QUQ5); experiment: calcium entry via TRPC4 opening agents – cell-based, HEK293 TRPC4/mu-opioid, Fluo-4 calcium, dose response (AID 434937); assay type: functional
T2 sequence (Q9QUQ5 whole entry): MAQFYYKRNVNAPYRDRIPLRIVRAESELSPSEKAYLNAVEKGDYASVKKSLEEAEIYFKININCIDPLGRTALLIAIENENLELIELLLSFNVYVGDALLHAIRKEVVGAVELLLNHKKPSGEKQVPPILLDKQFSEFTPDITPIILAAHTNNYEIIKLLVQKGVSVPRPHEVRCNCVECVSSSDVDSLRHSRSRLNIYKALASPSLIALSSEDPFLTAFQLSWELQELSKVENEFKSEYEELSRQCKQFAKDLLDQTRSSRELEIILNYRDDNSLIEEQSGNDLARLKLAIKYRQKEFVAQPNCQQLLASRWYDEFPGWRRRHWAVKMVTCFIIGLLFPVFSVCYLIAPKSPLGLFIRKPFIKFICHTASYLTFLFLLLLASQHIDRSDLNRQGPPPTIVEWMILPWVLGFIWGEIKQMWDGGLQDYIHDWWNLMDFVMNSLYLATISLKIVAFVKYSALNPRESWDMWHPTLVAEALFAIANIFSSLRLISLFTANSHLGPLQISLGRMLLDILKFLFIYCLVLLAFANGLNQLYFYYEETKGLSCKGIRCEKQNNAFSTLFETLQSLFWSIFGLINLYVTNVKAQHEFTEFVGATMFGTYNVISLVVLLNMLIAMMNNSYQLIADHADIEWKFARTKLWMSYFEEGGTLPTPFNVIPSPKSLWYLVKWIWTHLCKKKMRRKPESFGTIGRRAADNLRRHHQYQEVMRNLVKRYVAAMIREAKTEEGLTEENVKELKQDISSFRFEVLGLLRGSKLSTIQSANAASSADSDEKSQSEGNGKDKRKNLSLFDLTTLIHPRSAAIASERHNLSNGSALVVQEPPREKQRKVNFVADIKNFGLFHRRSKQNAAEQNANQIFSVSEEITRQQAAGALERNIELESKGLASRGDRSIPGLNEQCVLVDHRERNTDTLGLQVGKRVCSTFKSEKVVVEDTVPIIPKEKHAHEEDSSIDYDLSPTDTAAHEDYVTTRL

Mu-type opioid receptor = Mu-type opioid receptor (Homo sapiens, UniProt P35372); experiment: (§1) Counterscreen for agonists of heterodimerization of the mu 1 (OPRM1) and delta 1 (OPRD1) opioid receptors: Luminescence-based cell-based high throughput dose response assay to identify agonists of OPRM1 homodimerization.; assay type: functional
Sequence of Mu-type opioid receptor (P35372 whole entry): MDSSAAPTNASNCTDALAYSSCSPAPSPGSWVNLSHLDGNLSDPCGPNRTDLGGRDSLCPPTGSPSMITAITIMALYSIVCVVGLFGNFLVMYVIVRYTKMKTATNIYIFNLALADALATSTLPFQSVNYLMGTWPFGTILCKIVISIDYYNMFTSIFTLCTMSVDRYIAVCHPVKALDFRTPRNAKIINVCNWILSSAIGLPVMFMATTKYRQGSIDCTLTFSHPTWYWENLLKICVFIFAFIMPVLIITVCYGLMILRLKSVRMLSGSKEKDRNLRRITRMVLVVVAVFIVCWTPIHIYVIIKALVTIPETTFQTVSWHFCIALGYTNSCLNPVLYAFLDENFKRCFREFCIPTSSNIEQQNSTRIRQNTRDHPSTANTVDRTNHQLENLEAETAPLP

[7] = target: Delta-type opioid receptor (Homo sapiens, UniProt P41143); experiment: as §1, with “of OPRD1” for “of OPRM1”, “homodimerization. [Related pubchem assays (depositor defined):AID504326, AID504355, AID504692, AID504904, AID504905]” for “homodimerization.”; assay type: functional
Sequence of Delta-type opioid receptor (P41143 whole entry): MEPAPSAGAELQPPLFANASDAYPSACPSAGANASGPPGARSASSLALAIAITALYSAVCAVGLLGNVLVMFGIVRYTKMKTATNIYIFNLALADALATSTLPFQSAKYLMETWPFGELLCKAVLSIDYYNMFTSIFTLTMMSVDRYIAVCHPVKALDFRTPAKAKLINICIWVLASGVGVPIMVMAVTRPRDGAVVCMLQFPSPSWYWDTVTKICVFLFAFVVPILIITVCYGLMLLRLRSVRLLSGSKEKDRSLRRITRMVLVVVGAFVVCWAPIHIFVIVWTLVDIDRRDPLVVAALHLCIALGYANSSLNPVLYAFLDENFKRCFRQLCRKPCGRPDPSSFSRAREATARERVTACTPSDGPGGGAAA

`CC(=O)Nc1ccc2c(c1)C(C)(C)C(C)N2C` (stereo not drawn) was tested, and the IC50 [1] was > 50 µM (not active) and the AC50 [2] was 17.9 µM (active).
For `CCc1nn(C(CC)C(=O)NCCc2ccc(OC)cc2OC)c(=O)c2cc3occc3n12` (stereo not drawn), the EC50 (HEK293 [3]) was > 59.6 µM (inactive) and the EC50 (HEK293 [4]) was > 59.6 µM (inactive).
`Cc1cccc(NC(S)=NCC(c2cccnc2)N(C)C)c1` (stereo not drawn) was tested, and the EC50 [5] was > 92.5 µM (inactive), the EC50 [6] was 0.0267 µM (active) and the EC50 (Mu-type opioid receptor) was 15.6 µM (inactive). The EC50 [7] was > 92.5 µM (inactive).
